Data as given in ChEMBL document CHEMBL1158205, “Antineoplastic agents. 340. Isolation and structural elucidation of bryostatins 16-18” (J Nat Prod, 1996).
Values after ≈ are worked out from the molar mass of the structure shown.

Key:
[1] = target: Protein kinase C alpha type (Homo sapiens, UniProt P17252); assay: Displacement of [3H]PDBu form PKCalpha
P388 = assay: Cytotoxicity against mouse P388 cells; format: functional; conditions: read-out: ED50 (the source's name)
KM-20L2 = assay: Growth inhibition of human KM20L2 cells by NCI-method; format: functional
NCI-H460 = assay: Growth inhibition of human NCI-H460 cells by NCI-method; format: functional
OVCAR-3 = assay: Growth inhibition of human OVCAR-3 cells by NCI-method; format: functional
A498 = assay: Growth inhibition of human A498 cells by NCI-method; format: functional
SF-295 = assay: Growth inhibition of human SF295 cells by NCI-method; format: functional
SK-MEL-5 = assay: Growth inhibition of human SK-MEL-5 cells by NCI-method; format: functional

| SMILES | Ki [1] [nM] | EC50 (P388) [ng/mL] | GI50 (KM-20L2) [µg/mL] | GI50 (NCI-H460) [µg/mL] | GI50 (OVCAR-3) [µg/mL] | GI50 (A498) [µg/mL] | GI50 (SF-295) [µg/mL] | GI50 (SK-MEL-5) [µg/mL] |
| --- | --- | --- | --- | --- | --- | --- | --- | --- |
| COC(=O)/C=C1/C[C@H]2C[C@]3(O)O[C@H](C[C@@H](O)CC(=O)O[C@@H]([C@@H](C)O)C[C@@H]4C/C(=C\C(=O)OC)C[C@@](O)(O4)C(C)(C)/C=C/[C@@H](C1)O2)C[C@H](OC(=O)C(C)(C)C)C3(C)C [BRYOSTATIN 10] | 1.56 |  |  |  |  |  |  |  |
| COC(=O)/C=C1/C[C@H]2C[C@]3(O)O[C@H](C[C@@H](O)CC(=O)O[C@@H]([C@@H](C)O)C[C@@H]4C/C(=C\C(=O)OC)C=C(O4)C(C)(C)/C=C/[C@@H](C1)O2)C[C@H](OC(=O)C(C)(C)C)C3(C)C [BRYOSTATIN 16] | 118 | 9.3 (≈ 0.0118 µM) | 2.2 (≈ 2.78 µM) | 0.019 (≈ 0.024 µM) | 1.9 (≈ 2.4 µM) | 1.9 (≈ 2.4 µM) | 1.4 (≈ 1.77 µM) | 1.2 (≈ 1.52 µM) |
| COC(=O)/C=C1\C=C2O[C@@H](C1)C[C@H]([C@@H](C)O)OC(=O)C[C@H](O)C[C@@H]1C[C@H](OC(=O)C(C)(C)C)C(C)(C)[C@](O)(C[C@@H]3C/C(=C/C(=O)OC)C[C@H](/C=C/C2(C)C)O3)O1 [BRYOSTATIN 17] | 188 | 19 (≈ 0.024 µM) | 0.16 (≈ 0.202 µM) | 0.16 (≈ 0.202 µM) | 0.16 (≈ 0.202 µM) | 0.16 (≈ 0.202 µM) | 0.16 (≈ 0.202 µM) | 0.16 (≈ 0.202 µM) |
| COC(=O)/C=C1/C[C@H]2C[C@]3(O)O[C@H](C[C@@H](O)CC(=O)O[C@@H]([C@@H](C)O)C[C@@H]4C/C(=C/C(=O)OC)C[C@@](O)(O4)C(C)(C)/C=C/[C@@H](C1)O2)C[C@H](OC(=O)C(C)(C)C)C3(C)C [BRYOSTATIN 18] | 4.82 | 3.3 (≈ 0.00408 µM) | 0.42 (≈ 0.519 µM) | 0.42 (≈ 0.519 µM) | 0.42 (≈ 0.519 µM) | 0.42 (≈ 0.519 µM) | 0.42 (≈ 0.519 µM) | 0.42 (≈ 0.519 µM) |
